According to ChEMBL document CHEMBL3046043, “Antihyperglycaemic activity of Sinularia firma and Sinularia erecta in streptozotocin-induced diabetic rats” (Med Chem Res, 2008):

Legend:
[1] = species on record: Homo sapiens; experiment: Inhibition of glycogen phosphorylase (unknown origin) assessed as inorganic phosphate production at 100 uM after 30 min
[2] = molecular target: T1, Glucose-6-phosphatase catalytic subunit 1 (Homo sapiens) (UniProt P35575); experiment: Inhibition of glucose-6-phosphatase (unknown origin) using glucose-6-phosphate as substrate assessed as inorganic phosphate production at 100 uM after 30 min
T1 sequence (whole entry): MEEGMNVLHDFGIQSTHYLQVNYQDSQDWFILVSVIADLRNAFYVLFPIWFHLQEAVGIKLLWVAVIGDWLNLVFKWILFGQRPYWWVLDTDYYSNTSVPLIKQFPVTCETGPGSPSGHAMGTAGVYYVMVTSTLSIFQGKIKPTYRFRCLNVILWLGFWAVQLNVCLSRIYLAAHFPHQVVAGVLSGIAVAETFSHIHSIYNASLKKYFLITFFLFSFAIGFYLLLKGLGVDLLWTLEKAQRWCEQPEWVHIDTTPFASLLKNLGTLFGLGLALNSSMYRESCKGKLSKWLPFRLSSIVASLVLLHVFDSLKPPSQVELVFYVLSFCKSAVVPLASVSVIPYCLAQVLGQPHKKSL

[3] = molecular target: T2, Tyrosine-protein phosphatase non-receptor type 1 (Homo sapiens) (UniProt P18031); experiment: Inhibition of PTP1B (unknown origin) using p-nitrophenyl phosphate as substrate assessed as p-nitrophenolate ions production at 100 uM after 10 min
T2 sequence (whole entry): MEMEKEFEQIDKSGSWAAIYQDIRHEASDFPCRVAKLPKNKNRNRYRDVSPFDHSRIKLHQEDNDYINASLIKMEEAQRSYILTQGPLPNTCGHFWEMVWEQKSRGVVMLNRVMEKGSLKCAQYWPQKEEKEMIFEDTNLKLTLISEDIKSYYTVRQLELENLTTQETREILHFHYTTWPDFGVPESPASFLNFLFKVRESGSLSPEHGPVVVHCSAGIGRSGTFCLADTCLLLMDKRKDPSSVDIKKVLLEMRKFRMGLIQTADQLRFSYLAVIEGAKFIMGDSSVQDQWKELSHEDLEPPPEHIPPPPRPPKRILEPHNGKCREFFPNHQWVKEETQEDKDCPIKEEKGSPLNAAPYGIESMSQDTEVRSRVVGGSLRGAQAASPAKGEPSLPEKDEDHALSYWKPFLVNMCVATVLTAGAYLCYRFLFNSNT

Structure (SMILES) | inhibition [1] [%] | inhibition [2] [%] | inhibition [3] [%]
C=C(CCCC(C)C)[C@H]1CCC2C3CC=C4C[C@@H](O)CC[C@]4(C)C3CC[C@@]21C (some centres undefined) | 10.2 | 15.9 | 7.6
CCCCC/C=C/CC/C=C/[C@@H](O)[C@H](CO)NC(=O)CCCCCCCCCCCCCCC | 11.3 | 14.6 | 4.1
CCCCCCCCCCCCCCCCCCOCC(O)CO (centres undefined) | 14.2 | 4.25 | 4.1
CCCCCCCCCCCCCCCCCCC(=O)OCCCCCCCCCCCCCCCCC | 17.2 | 8.56 | 11.1
CCCCCCCCCCC/C=C/C[C@@H](O)[C@H](CO)NC(=O)[C@H](O)CCCCCCCCCCCCCCCCCC | 9.5 | 10.2 | 1.3

More lines, now with the values ahead:

inhibition [1] [%] | inhibition [2] [%] | inhibition [3] [%] | Structure (SMILES)
10.2 | 12 | 0.2 | CCCCCCCCCCCCCCCCO[C@H]1OC[C@H](O[C@H]2OC[C@H](O[C@H]3OC[C@H](O)[C@H](O)[C@H]3O)[C@H](O)[C@H]2O)[C@H](O)[C@H]1O
18.9 | 12.7 | 1.3 | CCCCCCCCCCCCCCCCCOC(=O)CCCCCCCCCCCCCCCC
8.9 | 8.6 | 5.9 | CCCCCCCCCCCCCCCCCCCCCCO[C@H]1OC[C@H](O[C@H]2OC[C@H](O[C@H]3OC[C@H](O)[C@H](O)[C@H]3O)[C@H](OC(C)=O)[C@H]2O)[C@H](O)[C@H]1O
